{"source": "patent US20180153995A1", "about": "“USE OF ANTIMICROBIAL POLYMERS FOR RE-SENSITIZATION OF MICROORGANISMS UPON EMERGENCE OF RESISTANCE TO ANTI-MICROBIAL AGENTS” (Technion Research & Development Foundation Limited, priority 2008, published 2018)", "key": {"E. coli 16327": {"system": "E. coli 16327", "assay": "microbe, parasite or virus in culture"}, "S. aureus 15877": {"system": "S. aureus 15877", "assay": "Antibiotic MIC by microdilution with or without sub-MIC polymer", "type": "cell-based, Staphylococcus aureus", "protocol": "MICs were determined by microdilution susceptibility testing in 96-well plates (Nunc) using inocula of 10^5 bacteria per ml. One hundred (100) μl of a bacterial suspension were added to 100 μl of culture medium (control) or to 100 μl of culture medium containing various antibiotic and C12(5-ene)KKNC12KNH2 (SEQ ID NO: 2) concentrations in 2-fold serial dilutions. Inhibition of proliferation was determined by optical density measurements at 620 nm after an incubation period of 24 hours at 37° C."}, "S. aureus 43300": {"system": "S. aureus 43300", "assay": "Antibiotic MIC by microdilution with or without sub-MIC polymer", "type": "cell-based, Staphylococcus aureus"}, "E. coli 14182": {"system": "E. coli 14182", "assay": "Antibiotic MIC by microdilution with or without sub-MIC polymer", "type": "cell-based, Escherichia coli"}, "E. coli 16329": {"system": "E. coli 16329", "type": "cell-based, Escherichia coli", "description": "MICs were determined by microdilution susceptibility testing in 96-well plates (by Nunc) using inocula of 10^5 bacteria per ml. Cell populations were evaluated by optical density measurements at 620 nm and were calibrated against a set of standards. Hundred (100) μl of a bacterial suspension were added to 100 μl of culture medium (control) or to 100 μl of culture medium containing various polymer concentrations in 2-fold serial dilutions. Inhibition of proliferation was determined by optical density measurements at 620 nm after an incubation period of 24 hours at 37° C.\n100 μl of a bacterial suspension were added to 100 μl of culture medium (control) or to 100 μl of culture medium containing various antibiotic and C14(9-ene)KKNC12KNH2 (SEQ ID NO: 5) concentrations in 2-fold serial dilutions. Inhibition of proliferation was determined by optical density measurements at 620 nm after an incubation period of 24 hours at 37° C."}, "[1]": {"system": "E. coli K-12 efflux knockout mutant", "type": "cell-based, Escherichia coli", "conditions": "E. coli AG100A (efflux−)", "outline": "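Broth microdilution, inocula 10^5 bacteria/ml, 24 h at 37 °C. Growth read as OD620 against calibration standards.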"}, "MRSA 15903": {"system": "MRSA 15903", "assay": "microbe, parasite or virus in culture", "type": "cell-based, Staphylococcus aureus", "conditions": "MRSA 15903", "outline": "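Two-agent combinations tested against MRSA 15903; FIC index = A/MICA + B/MICB, using MICs in combination versus alone. Below 0.5 read as clear re-sensitizing, 0.5–4 marginal or null, above 4 antagonism.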"}, "[2]": {"conditions": "+⅓ MIC (2.1 μM) C12(5-ene)KKNC12KNH2"}}, "note": "“And” between values parts separate entries of the source, which are not always exact repeats. Identical values can stand only once. Like-named read-outs stand apart in the source and are kept apart here.", "data": [{"smiles": "Cc1onc(-c2ccccc2)c1C(=O)N[C@@H]1C(=O)N2[C@@H]1SC(C)(C)[C@@H]2C(=O)O", "note": "[Oxacillin, oxacillin]", "values": [{"measurement": "Antibiotic MIC", "setting": "E. coli 16327", "result": "512 mg/L and >512 mg/L"}, {"measurement": "Antibiotic MIC", "setting": "E. coli 16327; E. coli 16327, +¼ MIC (1.6 μM) C12K(KNC12K)2NH2", "result": ">512", "unit": "mg/L"}, {"measurement": "Antibiotic MIC", "setting": "E. coli 16327; E. coli 16327, +½ MIC (3.12 μM) C12K(KNC12K)2NH2", "result": 512, "unit": "mg/L"}, {"measurement": "Antibiotic MIC", "setting": "E. coli 16327; E. coli 16327, +⅓ MIC (2.1 μM) C12K(KNC12K)2NH2", "result": ">512", "unit": "mg/L"}, {"measurement": "Antibiotic MIC", "setting": "E. coli 16327; E. coli 16327, no polymer (None), Table 9", "result": ">512", "unit": "mg/L"}, {"measurement": "Antibiotic MIC", "setting": "E. coli 16327; E. coli 16327, no polymer (None), Table 10", "result": ">512", "unit": "mg/L"}, {"measurement": "Antibiotic MIC", "setting": "E. coli 16327; E. coli 16327, no polymer (None), Table 12", "result": ">512", "unit": "mg/L"}, {"measurement": "MIC, ¼ + MIC OAK", "setting": "E. coli 16327; E. coli U16327, with C12K(KNC10K)3NH2 (SEQ ID NO: 10) at ¼ of its MIC", "result": ">512", "unit": "mg/L"}, {"measurement": "MIC, ⅓ + MIC OAK", "setting": "E. coli 16327; E. coli U16327, with C12K(KNC10K)3NH2 (SEQ ID NO: 10) at ⅓ of its MIC", "result": ">512", "unit": "mg/L"}, {"measurement": "Antibiotic MIC, None", "setting": "E. coli 16327; E. coli U-16327, antibiotic alone (Table 15)", "result": ">512", "unit": "mg/L"}, {"measurement": "Antibiotic MIC in presence of C12K(NC8K)7NH2 (SEQ ID NO: 4), +¼ MIC", "setting": "E. coli 16327; E. coli U-16327, polymer at ¼ of its MIC", "result": ">512", "unit": "mg/L"}, {"measurement": "Antibiotic MIC in presence of C12K(NC8K)7NH2 (SEQ ID NO: 4), +½ MIC", "setting": "E. coli 16327; E. coli U-16327, polymer at ½ of its MIC", "result": 512, "unit": "mg/L"}, {"measurement": "Antibiotic MIC in presence of C12K(NC8K)7NH2 (SEQ ID NO: 4), +⅓ MIC", "setting": "E. coli 16327; E. coli U-16327, polymer at ⅓ of its MIC", "result": ">512", "unit": "mg/L"}, {"measurement": "MIC", "setting": "E. coli 16327; Escherichia coli, 16327, read-out: MIC, Alone", "result": "> 512", "unit": "mg/L"}, {"measurement": "Antibiotic MIC", "setting": "S. aureus 15877; +½ MIC (3.12 μM) C12(5-ene)KKNC12KNH2", "result": 16, "unit": "mg/L"}, {"measurement": "Antibiotic MIC", "setting": "S. aureus 15877; [2]", "result": 32, "unit": "mg/L"}, {"measurement": "Antibiotic MIC", "setting": "S. aureus 43300; +¼ MIC (1.6 μM) C12(5-ene)KKNC12KNH2", "result": 0.125, "unit": "mg/L"}, {"measurement": "Antibiotic MIC", "setting": "S. aureus 43300; +¼ MIC (1.6 μM) C12KKNC12KNH2", "result": 0.5, "unit": "mg/L"}, {"measurement": "Antibiotic MIC", "setting": "S. aureus 43300; +¼ MIC (1.6 μM) C16(9-ene)KKNC12KNH2", "result": "0.25 to 0.5", "unit": "mg/L"}, {"measurement": "Antibiotic MIC", "setting": "S. aureus 43300; +½ MIC (3.12 μM) C12K(KNC12K)2NH2", "result": 0.25, "unit": "mg/L"}, {"measurement": "Antibiotic MIC", "setting": "S. aureus 43300; +½ MIC (3.12 μM) C12KKNC12KNH2", "result": 0.25, "unit": "mg/L"}, {"measurement": "Antibiotic MIC", "setting": "S. aureus 43300; +½ MIC (3.12 μM) C16(9-ene)KKNC12KNH2", "result": "0.03 to 0.06", "unit": "mg/L"}, {"measurement": "Antibiotic MIC", "setting": "S. aureus 43300; [2]", "result": 0.125, "unit": "mg/L"}, {"measurement": "Antibiotic MIC", "setting": "S. aureus 43300; +⅓ MIC (2.1 μM) C12K(KNC12K)2NH2", "result": 0.25, "unit": "mg/L"}, {"measurement": "Antibiotic MIC", "setting": "E. coli 14182; +½ MIC C12K(NC8K)5NH2", "result": ">512", "unit": "mg/L"}, {"measurement": "Antibiotic MIC, None", "setting": "E. coli 14182; antibiotic alone (Table 15)", "result": ">512", "unit": "mg/L"}, {"measurement": "Antibiotic MIC", "setting": "E. coli 14182; no polymer (None), Table 14", "result": ">512", "unit": "mg/L"}, {"measurement": "Antibiotic MIC in presence of C12K(NC8K)7NH2 (SEQ ID NO: 4), +¼ MIC", "setting": "E. coli 14182; polymer at ¼ of its MIC", "result": ">512", "unit": "mg/L"}, {"measurement": "Antibiotic MIC in presence of C12K(NC8K)7NH2 (SEQ ID NO: 4), +½ MIC", "setting": "E. coli 14182; polymer at ½ of its MIC", "result": ">512", "unit": "mg/L"}, {"measurement": "Antibiotic MIC in presence of C12K(NC8K)7NH2 (SEQ ID NO: 4), +⅓ MIC", "setting": "E. coli 14182; polymer at ⅓ of its MIC", "result": ">512", "unit": "mg/L"}, {"measurement": "Antibiotic MIC", "setting": "E. coli 16329", "result": ">512", "unit": "mg/L"}, {"measurement": "Antibiotic MIC", "setting": "E. coli 16329; E. coli 16329, no polymer (None), Table 10", "result": ">512", "unit": "mg/L"}, {"measurement": "Antibiotic MIC", "setting": "E. coli 16329; E. coli U-16329, +¼ MIC C12K(NC8K)5NH2", "result": ">512", "unit": "mg/L"}, {"measurement": "Antibiotic MIC", "setting": "E. coli 16329; E. coli U-16329, +½ MIC C12K(NC8K)5NH2", "result": ">512", "unit": "mg/L"}, {"measurement": "Antibiotic MIC", "setting": "E. coli 16329; E. coli U-16329, +⅓ MIC C12K(NC8K)5NH2", "result": ">512", "unit": "mg/L"}, {"measurement": "Antibiotic MIC, None", "setting": "E. coli 16329; E. coli U-16329, antibiotic alone (Table 15)", "result": ">512", "unit": "mg/L"}, {"measurement": "Antibiotic MIC", "setting": "E. coli 16329; E. coli U-16329, no polymer (None), Table 14", "result": ">512", "unit": "mg/L"}, {"measurement": "Antibiotic MIC in presence of C12K(NC8K)7NH2 (SEQ ID NO: 4), +¼ MIC", "setting": "E. coli 16329; E. coli U-16329, polymer at ¼ of its MIC", "result": ">512", "unit": "mg/L"}, {"measurement": "Antibiotic MIC in presence of C12K(NC8K)7NH2 (SEQ ID NO: 4), +½ MIC", "setting": "E. coli 16329; E. coli U-16329, polymer at ½ of its MIC", "result": 512, "unit": "mg/L"}, {"measurement": "Antibiotic MIC in presence of C12K(NC8K)7NH2 (SEQ ID NO: 4), +⅓ MIC", "setting": "E. coli 16329; E. coli U-16329, polymer at ⅓ of its MIC", "result": ">512", "unit": "mg/L"}, {"measurement": "Antibiotic MIC, None", "setting": "[1]; antibiotic alone (Table 16)", "result": "0.5 to 1", "unit": "mg/L"}, {"measurement": "Antibiotic MIC, None", "setting": "[1]; antibiotic alone (Table 17)", "result": "0.5 to 1", "unit": "mg/L"}, {"measurement": "Antibiotic MIC in presence of C12K(NC8K)7NH2 (SEQ ID NO: 4), +¼ MIC", "setting": "[1]; polymer at ¼ of its MIC (Table 16)", "result": "0.5 to 1", "unit": "mg/L"}, {"measurement": "Antibiotic MIC in presence of C12K(NC8K)7NH2 (SEQ ID NO: 4), +½ MIC", "setting": "[1]; polymer at ½ of its MIC (Table 16)", "result": 0.25, "unit": "mg/L"}, {"measurement": "Antibiotic MIC in presence of C12K(NC8K)7NH2 (SEQ ID NO: 4), +⅓ MIC", "setting": "[1]; polymer at ⅓ of its MIC (Table 16)", "result": 0.25, "unit": "mg/L"}, {"measurement": "Antibiotic MIC in presence of the OAK, +¼ MIC", "setting": "[1]; the OAK at ¼ of its MIC (Table 17)", "result": 0.5, "unit": "mg/L"}, {"measurement": "Antibiotic MIC in presence of the OAK, +½ MIC", "setting": "[1]; the OAK at ½ of its MIC (Table 17)", "result": 0.25, "unit": "mg/L"}, {"measurement": "Antibiotic MIC in presence of the OAK, +⅓ MIC", "setting": "[1]; the OAK at ⅓ of its MIC (Table 17)", "result": 0.5, "unit": "mg/L"}, {"measurement": "MIC", "setting": "MRSA 15903; +¼ polymer MIC (1.6 μM) NC12(KNC12K)2NH2", "result": 256, "unit": "mg/L"}, {"measurement": "MIC", "setting": "MRSA 15903; +½ polymer MIC (3.1 μM) NC12(KNC12K)2NH2", "result": 0.17, "unit": "mg/L"}, {"measurement": "MIC", "setting": "MRSA 15903; +⅓ polymer MIC (2.1 μM) NC12(KNC12K)2NH2", "result": 0.34, "unit": "mg/L"}, {"measurement": "MIC", "setting": "MRSA 15903; antibiotic alone", "result": 256, "unit": "mg/L"}, {"measurement": "concentration up to which oxacillin alone is inactive", "setting": "MRSA 15903; oxacillin alone", "result": "> 25", "unit": "µM"}, {"measurement": "MIC, ½ + MIC OAK", "setting": "MRSA 15903; with C12K(KNC10K)3NH2 (SEQ ID NO: 10) at ½ of its MIC", "result": 0.5, "unit": "mg/L"}]}]}
